Data set [1] concerns vertebrate cells, preferably BALB/c mouse spleen cells or human PBMC. The experiment in a line: Immunostimulatory activity, IL-12/IL-6 secretion (Tables 9-12, cell culture not given). Format: cell-based. How it is done: (§1) The secretion of IL-12 and IL-6 in vertebrate cells, preferably BALB/c mouse spleen cells or human PBMC, was measured by sandwich ELISA. The required reagents including cytokine antibodies and cytokine standards were purchased form PharMingen, San Diego, Calif. ELISA plates (Costar) were incubated with appropriate antibodies at 5 μg/mL in PBSN buffer (PBS/0.05% sodium azide, pH 9.6) overnight at 4° C. and then blocked with PBS/i % BSA at 37° C. for 30 minutes. Cell culture supernatants and cytokine standards were appropriately diluted with PBS/10% FBS, added to the plates in triplicate, and incubated at 25° C. for 2 hours. Plates were overlaid with 1 μg/mL appropriate biotinylated antibody and incubated at 25° C. for 1.5 hours. The plates were then washed extensively with PBS-T Buffer (PBS/0.05% Tween 20) and further incubated at 25° C. for 1.5 hours after adding streptavidin conjugated peroxidase (Sigma, St. Louis, Mo.). The plates were developed with Sure Blue™ (Kirkegaard and Perry) chromogenic reagent and the reaction was terminated by adding Stop Solution (Kirkegaard and Perry). The color change was measured on a Ceres 900 HDI Spectrophotometer (Bio-Tek Instruments).
(§2) In all instances, the levels of IL-12 and IL-6 in the cell culture supernatants were calculated from the standard curve constructed under the same experimental conditions for IL-112 and IL-6, respectively. The levels of IL-10, IFN-gamma and TNF-α in the cell culture supernatants were calculated from the standard curve constructed under the same experimental conditions for IL-10, IFN-gamma and TNF-α, respectively.

The subject of the next data set is human PBMC. The experiment in a line: Cytokine secretion in human PBMC cultures (sandwich ELISA). The class given is cell-based. The protocol:
as §1
Human peripheral blood mononuclear cells (PBMCs) were isolated from peripheral blood of healthy volunteers by Ficoll-Paque density gradient centrifugation (Histopaque-1077, Sigma, St. Louis, Mo.). Briefly, heparinized blood was layered onto the Histopaque-1077 (equal volume) in a conical centrifuge and centrifuged at 400×g for 30 minutes at room temperature. The buffy coat, containing the mononuclear cells, was removed carefully and washed twice with isotonic phosphate buffered saline (PBS) by centrifugation at 250×g for 10 minutes. The resulting cell pellet was then resuspended in RPMI 1640 medium containing L-glutamine (MediaTech, Inc., Hemdon, Va.) and supplemented with 10% heat inactivated FCS and penicillin-streptomycin (100 U/ml). Cells were cultured in 24 well plates for different time periods at 1×10^6 cells/ml/well in the presence or absence of oligonucleotides. At the end of the incubation period, supernatants were harvested and stored frozen at −70° C. until assayed for various cytokines including IL-6 (BD Pharmingen, San Diego, Calif.), IL-10 (BD Pharmingen), IL-12 (BioSource International, Camarillo, Calif.), IFN-α (BioSource International) and -γ(BD Pharmingen) and TNF-α(BD Pharmingen) by sandwich ELISA.
as §2

The test system of a further data set is BALB/c mice. The data set can be described thus: In vivo serum cytokine induction. The settings on record: 4 hrs. More on the design: species or system mouse. The protocol:
To assess serum cytokine levels, BALB/c mice (n=5) were injected intraperitoneally (i.p), subcutaneously (s.c) or intramuscularly (i.m) with IMO compounds at 10 mg/kg (single dose). Sera was collected by retro-orbital bleeding at 4 hrs of IMO administration and determined IL-112 and IL-6 by sandwich ELISA. Cytokine antibodies and standards were purchased from PharMingen (San Diego, Calif.).
To evaluate the immunopharmacological effects in vivo, IMO compounds, CpG immunomers, and non-CpG oligos were administered to BALB/c mice i.p, s.c or i.m at a dose of 10 mg/kg and their serum was evaluated for IL-12 and IL-6 after 4 hrs.

Setting [2] is: Intraperitoneal (i.p), 10 mg/kg.

“Immunomer 79: SEQ ID NO: 37, 10mer (DNA CTGACGTTCT; listed as DNA, chemistry not fully specified)” registered an IL-12 in data set [1] (0.3 μg/mL, Table 12) of 2255 pg/mL. The IL-6 in data set [1] (1 μg/mL, Table 12) is reported as 2034 pg/mL.
“5′-CTATCTGTCGTTCTCTGT-3′ (phosphorothioate, further chemistry not given here) [Oligo 25, 18mer (PS)]”: in data set [1] (3 μg/mL, Table 10), the IL-6 was found to be 339 pg/mL and the IL-12 came out at 379 pg/mL. Also, in the data set with human PBMC (donor 1 (D1)), the IFN-γ worked out at 125 pg/mL, the IL-6 was determined as 3077 pg/mL, the IL-10 was found to be 37 pg/mL and the IL-12 amounted to 184 pg/mL. The substance also yielded a TNF-α in the data set on human PBMC (donor 1 (D1)) of 537 pg/mL. Moreover, in the data set on human PBMC (donor 2 (D2)), the IFN-γ is 84 pg/mL, the IL-6 is reported as 5369 pg/mL, the IL-10 turned out to be 88 pg/mL and the IL-12 is on record as 332 pg/mL.
On to “Immunomer 77: SEQ ID NO: 37, 10mer (DNA CTGACGTTCT; DNA, backbone and methylation of C not given here; immunomer: two 10mer chains joined by non-nucleotidic linker, linker varies, further chemistry not fully specified)”, for which, in data set [1] (0.3 μg/mL, Table 12), the IL-12 is reported as 264 pg/mL. The substance also displayed an IL-6 in data set [1] (1 μg/mL, Table 12) of 543 pg/mL.
“Immunomer 78: SEQ ID NO: 37, 10mer (DNA CTGACGTTCT; DNA, backbone and methylation of C not given here; immunomer: two 10mer chains joined by non-nucleotidic linker, linker varies, further chemistry not fully specified)” yielded an IL-12 in data set [1] (0.3 μg/mL, Table 12) of 1750 pg/mL. Besides, the IL-6 in data set [1] (1 μg/mL, Table 12) worked out at 2258 pg/mL.
“Immunomer 80: SEQ ID NO: 37, 10mer (DNA CTGACGTTCT; listed as DNA, chemistry not fully specified)”: in data set [1] (0.3 μg/mL, Table 12), the IL-12 was determined as 1493 pg/mL. This substance had an IL-6 in data set [1] (1 μg/mL, Table 12) of 1197 pg/mL.
The matching figures for “Immunomer 81: SEQ ID NO: 37, 10mer (DNA CTGACGTTCT; listed as DNA, chemistry not fully specified)”: 3625 pg/mL and 2642 pg/mL.
“Immunomer 83: SEQ ID NO: 37, 10mer (DNA CTGACGTTCT; listed as DNA, chemistry not fully specified)” showed an IL-12 in data set [1] (0.3 μg/mL, Table 12) of 1241 pg/mL. Moreover, the IL-6 in data set [1] (1 μg/mL, Table 12) came to 1964 pg/mL.
In data set [1] (@ 3 μg/mL, Table 9), 5′-CTCACTTTCGTTCTCTGT-3′ [Oligo 51] came in with an IL-6 of 348 pg/mL and an IL-12 of 404 pg/mL.
Regarding “Immunomer 67: SEQ ID NO: 6, 14mer (DNA CTGANGTTCTCTGT; listed as DNA, chemistry not fully specified)”, in data set [1] (3 μg/mL, Table 11), the IL-6 worked out at 152 pg/mL and the IL-12 was 548 pg/mL.
For “Immunomer 66: SEQ ID NO: 5, 18mer (DNA CTATCTGACNTTCTCTGT; listed as DNA, chemistry not fully specified)”, in that order: 464 pg/mL and 627 pg/mL.
With “Immunomer 73: SEQ ID NO: 37, 10mer (DNA CTGACGTTCT; listed as DNA, chemistry not fully specified)”, the IL-12 in data set [1] (0.3 μg/mL, Table 12) is 697 pg/mL. Further, in data set [1] (1 μg/mL, Table 12), the IL-6 is reported as 1454 pg/mL.
The matching figures for “Immunomer 74: SEQ ID NO: 37, 10mer (DNA CTGACGTTCT; DNA, backbone and methylation of C not given here; immunomer: two 10mer chains joined by non-nucleotidic linker, linker varies, further chemistry not fully specified)”: 1162 pg/mL and 669 pg/mL.
For the substance “Immunomer 68: SEQ ID NO: 7, 14mer (DNA CTGACNTTCTCTGT; listed as DNA, chemistry not fully specified)”, in data set [1] (3 μg/mL, Table 11), the IL-6 was determined as 1020 pg/mL and the IL-12 was 1052 pg/mL.
In data set [1] (@ 3 μg/mL, Table 9), “Immunomer 58: SEQ ID NO: 33, 11mer (DNA TCTTTCNTTCT; listed as DNA, chemistry not fully specified)” gave an IL-6 of 283 pg/mL and an IL-12 of 303 pg/mL.
On to “Immunomer 75: SEQ ID NO: 37, 10mer (DNA CTGACGTTCT; DNA, backbone and methylation of C not given here; immunomer: two 10mer chains joined by non-nucleotidic linker, linker varies, further chemistry not fully specified)”, for which, in data set [1] (0.3 μg/mL, Table 12), the IL-12 is given as 1074 pg/mL. The same substance showed an IL-6 in data set [1] (1 μg/mL, Table 12) of 1375 pg/mL.
For the substance “Immunomer 62: SEQ ID NO: 35, 11mer (DNA TCTGTCNTTCT; listed as DNA, chemistry not fully specified)”, in data set [1] (3 μg/mL, Table 10), the IL-6 was found to be 296 pg/mL and the IL-12 was found to be 787 pg/mL.
In turn, “Immunomer 76: SEQ ID NO: 37, 10mer (DNA CTGACGTTCT; DNA, backbone and methylation of C not given here; immunomer: two 10mer chains joined by non-nucleotidic linker, linker varies, further chemistry not fully specified)” showed an IL-12 in data set [1] (0.3 μg/mL, Table 12) of 563 pg/mL. In data set [1] (1 μg/mL, Table 12), this substance had an IL-6 of 705 pg/mL.
For the substance “Immunomer 57: SEQ ID NO: 32, 11mer (DNA TCTTTNGTTCT; listed as DNA, chemistry not fully specified)”, in data set [1] (@ 3 μg/mL, Table 9), the IL-6 is 365 pg/mL and the IL-12 came to 591 pg/mL.
Regarding “5′-CTATCTCACCTTCTCTGT-3′ (DNA, backbone not given here) [Non-CpG, reference compound]”, the “Serum IL-12 induction” value in the data set with BALB/c mice (10 mg/kg i.p, s.c or i.m) is given as “insignificant”. The “Serum IL-6 induction” value in the data set on BALB/c mice (10 mg/kg, all three routes of administration) is given as “insignificant”. For the same substance, the “IL-12 (serum)” value with BALB/c mice (Intramuscular (i.m), 10 mg/kg) worked out at 1.6 ± 0.07 ng/mL; with BALB/c mice (setting [2]), 0.86 ± 0.5 ng/mL; in the data set with BALB/c mice (Subcutaneous (s.c), 10 mg/kg), 1.7 ± 0.04 ng/mL. The “IL-6 (serum)” value in the data set with BALB/c mice (setting [2]) was 0.7 ± 0.3 ng/mL.
Consider “Immunomer 82: SEQ ID NO: 37, 10mer (DNA CTGACGTTCT; listed as DNA, chemistry not fully specified)”, for which, in data set [1] (0.3 μg/mL, Table 12), the IL-12 turned out to be 4248 pg/mL. The same substance gave an IL-6 in data set [1] (1 μg/mL, Table 12) of 2988 pg/mL.
In data set [1] (3 μg/mL, Table 11), “Immunomer 65: SEQ ID NO: 4, 18mer (DNA CTATCTGANGTTCTCTGT; listed as DNA, chemistry not fully specified)” returned an IL-6 of 192 pg/mL and an IL-12 of 443 pg/mL.
Take “Immunomer 61: SEQ ID NO: 34, 11mer (DNA TCTGTNGTTCT; listed as DNA, chemistry not fully specified)”: in data set [1] (3 μg/mL, Table 10), the IL-6 was determined as 470 pg/mL and the IL-12 is listed as 1127 pg/mL.
In data set [1] (3 μg/mL, Table 11), “Immunomer 70: SEQ ID NO: 24, 11mer (DNA TCTGACNTTCT; listed as DNA, chemistry not fully specified)” had an IL-6 of 1741 pg/mL and an IL-12 of 1780 pg/mL.
The matching figures for “Immunomer 69: SEQ ID NO: 36, 11mer (DNA TCTGANGTTCT; listed as DNA, chemistry not fully specified)”: 2724 pg/mL and 2050 pg/mL.

(Values after patent US7569554B2, “Synergistic treatment of cancer using immunomers in conjunction with therapeutic agents” (Idera Pharmaceuticals, Inc., priority 2003, dated 2009).)
